The test system of data set [1] is Respiratory Syncytial Virus (RSV) long strain (ATCC#VR-26). Put plainly: RSV Antiviral Assay (CPE reduction assay). The format is cell-based. To be noted: human respiratory syncytial virus, 120 h; HEp-2 cells infected with RSV long strain, 5 days, CCK-8 readout; bins (Table 2: less than 1 μM; Table 3: equal to or higher than 1 μM and less than 50 μM); read-out: 50% effective concentration (EC50). How it is done:
CPE reduction assays are performed as described by Sidwell and Huffman et al., Appl. Microbiol. (1971) 22(5):797-801 with slight modifications. HEp-2 cells (ATCC#, CCL-23) are seeded at a density of 1,500 cells/30 μl/well into the 384-well cell plate(s) (Corning#3701) one day prior to the assay. Compounds are added into 384-well cell plates by Labcyte POD 810 Plate Assembler system. Each of the test compounds is provided to duplicate wells of a 384-well cell plate at final concentrations starting from 100 μM or 1 μM using ⅓ stepwise dilutions for 9 points. Quick-thaw Respiratory Syncytial Virus (RSV) long strain (ATCC#VR-26) stock in a 37° C. water bath. Place on ice until ready to use. Viruses are diluted to the concentration of 100 TCID50/30 μl with medium and 30 μl diluted RSV are added into related wells of 384-well cell plates. For each plate, sixteen wells are set aside as uninfected, untreated cell controls (CC), and nine wells per test plate receive virus only as a control for virus replication (VC). The final DMSO concentration of all wells is 1%. Place the plates at 37° C., 5% CO2 for 5 days.
After 5 days incubation, observe the CPE of cells in all wells. […] Six μl of cell counting kit-8 reagent (CCK-8, Dojindo Molecular Technologies Inc., CK04-20) are added to each well, which allows colorimetric assays to determine the number of viable cells through the dehydrogenase activity detection. After 3-4 hour incubation, the absorbance of each well is measured with a spectrophotometric plate reader at 450 nm wavelength, using a 630 nm filter as background according to manufacturer's instruction. The 50% effective concentration (EC50) is calculated by using regression analysis, based on the mean O.D. at each concentration of compound.

The nature of data set [2]: Cytotoxicity Determination. It is filed as cell-based. To be noted: human, HEp-2 cells, without addition of virus, CCK-8 readout, bins (Table 4: greater than 100 μM; Table 5: equal to or less than 100 μM and greater than 10 μM), read-out: 50% cytotoxicity concentration (CC50). The method, then:
In order to determine the compound cytotoxicity, in parallel, each of the compounds is applied to duplicate wells in a 384-well cell plate at serial final concentrations starting from 100 μM using ½ stepwise dilutions for 7 points without addition of virus. Incubate the cells at 37° C., 5% CO2 for 5 days. Add 6 μl CCK-8 into each well and incubate in a CO2 incubator at 37° C. for 3-4 hours. Read the plates to obtain the optical densities which are used to calculate 50% cytotoxicity concentration (CC50).

Where only a bound is given, the exact number is not on record here.

On to `COc1cc(C(=O)NCC(=O)c2cc(CO)cc(-c3ccc(F)c(Cl)c3)n2)ccc1OCC1CC1` [Compound 3800], for which the EC50 in data set [1] is under 1 µM. In addition, in data set [2], the CC50 at 5 days lay within 10 to 100 µM.

For `COc1cc(C(=O)NCC(=O)c2cc(C)c(OC)c(-c3csc4c(F)cccc34)n2)ccc1OCCO` [Compound 2103], the EC50 in data set [1] is under 1 µM. In data set [2], the CC50 at 5 days is 10 to 100 µM.

Take `COc1ccc(C(=O)NCC(=O)N/N=C(\C)c2csc3cc(F)ccc23)cc1OC` [Compound 400-22]: in data set [1], the EC50 was 1 to 50 µM. The CC50 at 5 days in data set [2] is 10 to 100 µM.

For `COc1ccc(C(=O)NCC(=O)N/N=C/c2cc3c(F)cccc3s2)cc1OC` [Compound 400-2], the EC50 in data set [1] fell in the range of 1 to 50 µM. The CC50 at 5 days in data set [2] was in the range of 10 to 100 µM.

In the case of `O=C(NCC(=O)c1cccc(-c2csc3c(F)cccc23)n1)c1ccc(OCCO)c(O)c1` [Compound 1230], in data set [1], the EC50 fell in the range of 1 to 50 µM. The CC50 at 5 days in data set [2] is 10 to 100 µM.

On to `COc1cc(C(=O)NCC(=O)c2ccc(OC)c(-c3ccc(F)cc3F)n2)ccc1OCCO` [Compound 1601], for which, in data set [1], the EC50 was under 1 µM. The CC50 at 5 days in data set [2] is over 100 µM.

For `COc1cc(C(=O)NCC(=O)c2cc(C)cc(-c3csc4c(F)cccc34)n2)ccc1OCCO` [Compound 1217], the EC50 in data set [1] was under 1 µM. In addition, the CC50 at 5 days in data set [2] was over 100 µM.

In the case of `COc1cc(C(=O)NCC(=O)c2ccc(OC)c(-c3ccc(F)c(Cl)c3)n2)ccc1OCC(C)N` (stereo not shown) [Compound 1315], in data set [1], the EC50 was in the range of 1 to 50 µM. Besides, in data set [2], the CC50 at 5 days is 10 to 100 µM.

Turning to `COc1cc(C(=O)N[C@H](CCO)C(=O)c2ccc(OC)c(-c3ccc(F)c(C(F)(F)F)c3)n2)ccc1OCCO` [Compound 1806], the EC50 in data set [1] is under 1 µM. Moreover, the CC50 at 5 days in data set [2] was over 100 µM.

As for `COc1cc(C(=O)CNC(=O)c2ccc(OC)c(OC)c2)nc(-c2ccc3c(c2)OCCO3)c1` [Compound 1402], the EC50 in data set [1] was 1 to 50 µM. For the same molecule, the CC50 at 5 days in data set [2] is over 100 µM.

On to `COc1cc(C(=O)N[C@@H](COC(C)(C)C)C(=O)c2ccc(OC)c(-c3csc4c(F)cccc34)n2)ccc1OCCO` [Compound 1819], for which the EC50 in data set [1] was under 1 µM. In addition, the CC50 at 5 days in data set [2] lay in the range of 10 to 100 µM.

On to `COc1ccc(C(=O)CNC(=O)c2ccc(OCCO)cc2)nc1-c1ccc(F)c(Cl)c1` [Compound 1308], for which, in data set [1], the EC50 was 1 to 50 µM. Besides, in data set [2], the CC50 at 5 days was over 100 µM.

As for `COc1cc(C(=O)NCC(=O)c2ccc(OC)c(-c3ccc(F)cc3)n2)ccc1OCCO` [Compound 1608], in data set [1], the EC50 is under 1 µM. Besides, the CC50 at 5 days in data set [2] fell in the range of 10 to 100 µM.

On to `COc1cc(C(=O)NCC(=O)c2ccc(OC)c(-c3ccnc(F)c3)n2)ccc1OCCO` [Compound 1610], for which the EC50 in data set [1] was in the range of 1 to 50 µM. For the same molecule, the CC50 at 5 days in data set [2] is over 100 µM.

As for `COc1ccc(C(=O)NCC(=O)c2ccc(OC)c(-c3ccc4[nH]cnc4c3)n2)cc1OC` [Compound 1534], the EC50 in data set [1] lay in the range of 1 to 50 µM. The CC50 at 5 days in data set [2] was over 100 µM.

Turning to `COc1ccc(C(=O)NCC(O)c2ccnc(-c3csc4c(F)cccc34)n2)cc1OC` (stereo not shown) [Compound 839, N-(2-(2-(7-fluorobenzo[b]thiophen-3-yl)pyrimidin-4-yl)-2-hydroxyethyl)-3,4-dimethoxy-benzamide], the EC50 in data set [1] was in the range of 1 to 50 µM. Moreover, in data set [2], the CC50 at 5 days is over 100 µM.

`COc1ccc(C(=O)NCC(=O)N/N=C(\C)c2ccnc3ccccc23)cc1OC` [Compound 449]: the EC50 in data set [1] lay within 1 to 50 µM. In addition, in data set [2], the CC50 at 5 days was over 100 µM.

With `COc1cc(C(=O)NCC(=O)c2cc(C(=O)O)cc(-c3csc4c(F)cccc34)n2)ccc1OCCO` [Compound 1258], the EC50 in data set [1] was in the range of 1 to 50 µM. In data set [2], the CC50 at 5 days was over 100 µM.

As to `C=C(C)c1cc(C(=O)CNC(=O)c2ccc(OC)c(OC)c2)nc(-c2csc3c(F)cccc23)c1` [Compound 1237], the EC50 in data set [1] was under 1 µM. For the same molecule, in data set [2], the CC50 at 5 days is 10 to 100 µM.

Turning to `COc1cc(C(=O)NCC(=O)c2ccc(OC(F)(F)F)c(-c3csc4c(F)cccc34)n2)ccc1OCCO` [Compound 2107], the EC50 in data set [1] lay in the range of 1 to 50 µM. Moreover, the CC50 at 5 days in data set [2] fell in the range of 10 to 100 µM.

As to `COc1cc(C(=O)NCC(=O)c2ccc(OC)c(-c3ccc(Cl)cc3)n2)ccc1OCCO` [Compound 1607], the EC50 in data set [1] was under 1 µM. Also, in data set [2], the CC50 at 5 days lay in the range of 10 to 100 µM.

As to `CCNc1ccc(C(=O)NCC(=O)N/N=C(\C)c2csc3ccccc23)cc1OC` [Compound 508], the EC50 in data set [1] fell in the range of 1 to 50 µM. Further, in data set [2], the CC50 at 5 days is over 100 µM.

As for `CCc1cc(C(=O)CNC(=O)c2ccc(OCCO)c(OC)c2)nc(-c2c[nH]c3c(F)cccc23)c1` [Compound 2112], in data set [1], the EC50 was under 1 µM. For the same molecule, in data set [2], the CC50 at 5 days is over 100 µM.

As for `COc1ccc(C(=O)NC(C)C(=O)c2ccc(OC)c(-c3csc4c(F)cccc34)n2)cc1OC` (stereo not shown) [Compound 1824], the EC50 in data set [1] was under 1 µM. Further, the CC50 at 5 days in data set [2] was over 100 µM.

Consider `COc1ccc(C(=O)NCC(=O)c2ccc(OC)c(-c3ccnc(Cl)c3)n2)cc1OC` [Compound 1536], for which, in data set [1], the EC50 was in the range of 1 to 50 µM. For the same molecule, the CC50 at 5 days in data set [2] was over 100 µM.

Regarding `COc1cc(C(=O)NCC(=O)c2cccc(-c3csc4c(F)cccc34)n2)ccc1OCCCCO` [Compound 1223], in data set [1], the EC50 lay within 1 to 50 µM. For the same molecule, in data set [2], the CC50 at 5 days lay in the range of 10 to 100 µM.

Turning to `COc1cc(C(=O)NCC(=O)N(C)/N=C/c2c(F)sc3c(F)cccc23)ccc1OCCO` [Compound 2304], the EC50 in data set [1] is 1 to 50 µM. In addition, the CC50 at 5 days in data set [2] was 10 to 100 µM.

Turning to `COc1cc(C(=O)NCC(=O)c2ccc(OC)c(-c3csc4ccc(C#N)cc34)n2)ccc1OCCO` [Compound 1620], in data set [1], the EC50 was in the range of 1 to 50 µM. Moreover, the CC50 at 5 days in data set [2] was in the range of 10 to 100 µM.

`COc1cc(C(=O)NCC(=O)c2ccc3c(n2)-c2c(sc4c(F)cccc24)CO3)ccc1OCCO` [Compound 2703]: the EC50 in data set [1] was 1 to 50 µM. In addition, the CC50 at 5 days in data set [2] lay within 10 to 100 µM.

As to `COc1cc(C(=O)NCC(=O)c2ccc(OC)c(-c3ccc(Cl)c(C(F)(F)F)c3)n2)ccc1OCCO` [Compound 1623], in data set [1], the EC50 is under 1 µM. The CC50 at 5 days in data set [2] is over 100 µM.

Turning to `CCN(CC)c1ccc(C(=O)NCC(=O)N/N=C(\C)c2csc3ccccc23)cc1N(CC)CC` [Compound 506], the EC50 in data set [1] was in the range of 1 to 50 µM.

Take `COc1ccc(C(=O)NCC(=O)c2ccc(OC)c(-c3cncc4ccccc34)n2)cc1OC` [Compound 1512]: the EC50 in data set [1] was in the range of 1 to 50 µM.

Take `COc1cc(C(=O)NCC(=O)c2ccc(OC)c(-c3ccc(F)c(Cl)c3)n2)ccc1OCCO` [Compound 1310]: in data set [1], the EC50 is under 1 µM.

For the molecule `C#Cc1cc(C(=O)CNC(=O)c2ccc(OCCO)c(OC)c2)nc(-c2csc3c(F)cccc23)c1` [Compound 4216], the EC50 in data set [1] is 1 to 50 µM.

`COc1cc(C(=O)NCC(=O)N/N=C/c2csc3ccccc23)ccc1Cl` [Compound 215]: in data set [1], the EC50 is 1 to 50 µM.

Regarding `COc1cc(C(=O)NCC(=O)c2ccc(OC)c(-c3ccc(F)c(Cl)c3)n2)ccc1OCC1(N)CC1` [Compound 1307], in data set [1], the EC50 was in the range of 1 to 50 µM.

Regarding `COc1cc(C(=O)NCC(=O)c2ccc(OC)c(-c3ccc(F)c(Cl)c3)n2)ccc1-c1cccnc1` [Compound 2504], in data set [1], the EC50 was in the range of 1 to 50 µM.

`COc1cc(C(=O)NCC(=O)c2ccc(OC)c(-c3ccc(F)c(Cl)c3)n2)ccc1OC1CC(N)C1` (stereo not shown) [Compound 1359]: the EC50 in data set [1] was under 1 µM.

For the molecule `COc1cc(C(=O)NCC(=O)c2ccc(OC)c(-c3ccc(F)c(Cl)c3)n2)ccc1-c1ccncc1` [Compound 2507], the EC50 in data set [1] fell in the range of 1 to 50 µM.

For the molecule `COc1ccc(C(=O)NCC(=O)c2ccc(OC)c(-c3ccccc3-c3ccccc3)n2)cc1OC` [Compound 1523], the EC50 in data set [1] lay within 1 to 50 µM.

Values taken from patent US9724351B2, “Compounds for the treatment of paramoxyvirus viral infections” (priority 2012, dated 2017).
